From patent US7928057B2, “Peptide for inhibition of calcineurin, nucleic acid, antibody, and diagnostic and therapeutic methods of use” (Julius-Maximilians-Universitaet Wuerzburg, priority 2006, dated 2011)
Entries after “also recorded” stand apart in the source; their conditions may differ. Where no end group is shown, it is not given here.

Tests used:
[1] = target: T1, calcineurin (CnA)/importin β1 interaction (Homo sapiens, UniProt Q14974); assay: Peptide competition / co-immunoprecipitation of calcineurin with importin β1; format: binding; conditions: HeLa cells transfected with GFP-tagged CnA mutants (FIG. 3)
T1 construct: expressed in transfected cells; host or cells: HeLa cells (importin β1 endogenous, EGFP-CnAβ transfected)
Description: Immunoprecipitation of the CnA/importin complexes was performed with importin β1 antibodies, detection with a GFP antibody.
Epitope-tagged derivatives of calcineurin Aβ containing amino-terminal EGFP were generated using the mammalian expression vector pEGFP-C3 (BD Bioscience Clontech). For cloning of calcineurin mutants the mammalian expression vector pCMV-Sport6 containing the directionally cloned cDNA of human calcineurin Aβ was used (Invitrogen). The following mutants have been amplified by PCR, digested with XbaI and XhoI and cloned into the XbaI and XhoI sites of the described plasmid: CnAβ(full), CnAβ 1-415, CnAβ 1-425, CnAβ 1-445, CnAβ 1-465, CnAβ 1-485 and CnAβ 171-190. For these truncated mutants different reverse oligonucleotides were designed with subsequent N-terminal binding sites. The forward primer, binding at the N-terminus of calcineurin, was identical for each plasmid apart from the CnA(171-190) mutant. For this derivative primers are bound upstream of aa 171 and downstream of aa 190, respectively. Two internal mutants CnAβ(Δ420-434) and CnAβ(Δ420-445) were cloned into the XbaI and XhoI sites of pEGFP-C3 using a two step strategy. […]
(§1) The subcellular distribution of calcineurin was determined by immunofluorescence stainings. The primary antibodies used in fluorescence staining are described elsewhere (Burkhard et al., 2005). […]

[2] = tested on: nuclear import of calcineurin (CnA) via importin β1; assay: Peptide competition assay: nuclear import of calcineurin in cardiomyocytes; format: cell-based; conditions: neonatal rat cardiomyocytes stimulated with Ang II; peptide added to the medium (1 μM)
Description: (§2) Neonatal rat cardiomyocytes were incubated with a peptide mimicking the NLS sequence of CnA (SEQ ID NO:2) and stimulated with Ang II ([…]). […] Nuclear import of CnA was therefore prevented. Control experiments were performed with a non-sense peptide SEQ ID NO: 3).
(§3) Neonatal rat cardiomyocytes of Wistar rats were isolated as described previously (Ritter et al., 2003). Cells were resuspended in minimum essential medium/1% FCS. After preplating, the cardiomyocyte containing supernatant was recovered, and cells were plated in minimum essential medium on 6-well plates at a density of 1×10^6 cells per well. The medium for cardiomyocytes contained 5-bromo-2′-deoxyuridine (0.1 mmol/L) to suppress fibroblast growth. Fibroblast contamination of cardiomyocyte cultures was between 4% and 7% as regularly determined by immunohistochemical staining for troponin T. HeLa cells were grown in DMEM/5% FCS (Sigma). 48 hours after preparation, cells were stimulated with 10 nmol/L angiotensin II (Ang II). Cells were harvested 24 hours after stimulation. Concentrations were as follows: Ang II: 10 μM, calpeptin: 10 μM, NLS peptide and control peptide: 1 μM, respectively.
as §1

[3] = tested on: calcineurin (CnA); assay: CnA phosphatase activity (specific phosphosubstrate RII, Biomol kit); format: biochemical, rat; conditions: cardiomyocytes stimulated with Ang II (10 μM); n=8, p=not significant
Description: as §3, with “48 hours after preparation, cells were stimulated with 10 nmol/L angiotensin II (Ang II). Cells were harvested 24 hours after stimulation. Concentrations were as follows: Ang II: 10 μM, calpeptin: 10 μM, NLS peptide and control peptide: 1 μM, respectively.” left out
NF-ATc reporter plasmid comprised the II-2 promoter followed by luciferase. Luciferase activity was determined according to the manufacturer's protocol (Promega). CnA phosphatase activity was determined using a commercial kit (CnA kit assay, Biomol) that measures effect on a specific CnA phosphosubstrate. […]
Phosphatase activity, transcriptional activity, protein synthesis, cell size and makers of myocardial hypertrophy in response to the peptide related inhibition of CnA nuclear import were examined. Phosphatase activity was assessed employing a specific substrate (RII) for can (Ritter et al., 2002). Cardiomyocytes were stimulated with Ang II (10 μM), and CnA phosphatase activity was measured in the presence of the NLS peptide or a non sense control peptide. […]

[4] = tested on: CnA/NF-ATc signalling pathway; assay: NF-ATc luciferase reporter plasmid transcriptional activity; format: cell-based, rat
Description: as §3
NF-ATc reporter plasmid comprised the II-2 promoter followed by luciferase. Luciferase activity was determined according to the manufacturer's protocol (Promega). CnA phosphatase activity was determined using a commercial kit (CnA kit assay, Biomol) that measures effect on a specific CnA phosphosubstrate. Free PO4 was indicated by a malachite green dye. The use of this kit has been described previously (Ritter et al., 2002).
(§4) Phosphatase activity, transcriptional activity, protein synthesis, cell size and makers of myocardial hypertrophy in response to the peptide related inhibition of CnA nuclear import were examined. Phosphatase activity was assessed employing a specific substrate (RII) for can (Ritter et al., 2002). Cardiomyocytes were stimulated with Ang II (10 μM), and CnA phosphatase activity was measured in the presence of the NLS peptide or a non sense control peptide. […] Similarly, myocardial hypertrophy, as evidenced by protein synthesis (707±21% vs. 133±12%, n=8, p<0.05), cell size (1191±91 μm^2 vs. 728±65 μm^2, n=8, p<0.05) (FIG. 5B), and expression of brain natriuretic peptide (BNP) (163±11% vs. 88±8%, n=8, p<0.05) (FIG. 5C), were suppressed by the NLS peptide.

[5] = tested on: neonatal rat cardiomyocytes; assay: Markers of myocardial hypertrophy in Ang II stimulated cardiomyocytes (protein synthesis, cell size, BNP); format: cell-based; conditions: cardiomyocytes stimulated with Ang II (10 μM); n=8, p<0.05
Description: as §2, §3, §4

[6] = tested on: Ang II treated mice; assay: Ang II (osmotic minipump) induced myocardial hypertrophy in mice; format: in vivo; conditions: for development of myocardial hypertrophy in vivo (heart/body weight ratio, molecular markers, echocardiography): cyclic peptide 25 mg/kg body weight/day i.p.; for dilation of the left ventricle (left ventricular end diastolic diameter, LVEDD): mice with implanted mini-osmotic pumps with AngII, FIG. 8
Description: For in vivo use the blocking peptide, that mimics the calcineurin nuclear localization signal (NLS) received a peptide extension to increase membrane permeability and was synthesised as a cyclic peptide to withstand proteolysis of N- and C-terminal proteases. This peptide was administered twice daily at a concentration of 25 mg/kg body weight/day by i.p. injections into mice. The mice were treated with implanted osmotic minipumps to release either angiotensin II or saline as control.
The inventor now extended his experiments to in vivo data.

[7] = tested on: NFAT Luciferase reporter; assay: NFAT Luciferase reporter transgenic mice treated with angiotensin II; format: in vivo
[8] = target: T2, CRM1 (Rattus norvegicus, UniProt Q80U96); assay: CRM1 mediated nuclear export of CnA in cardiomyocytes; format: cell-based; conditions: full length CnA imported by Ang II stimulation, calpeptin added
T2 construct: endogenous in cells; host or cells: cardiomyocytes (neonatal rat)
Description: To address whether CnA nuclear export is mediated by CRM1, experiments using the CRM1 specific inhibitor, leptomycin B (LMB), were performed. Agonist-dependent nuclear import of full length CnA was achieved by Ang II stimulation. Calpeptin was added to prevent proteolysis of CnA.

[9] = tested on: T cells; assay: T cells stimulated with spleen dendritic cells (H3-thymidin incorporation); format: cell-based; conditions: T cells stimulated with spleen dendritic cells and simultaneously treated with peptide; FIG. 6
Text: Bars indicate protein synthesis (H3-thymidin incorporation).
The inventor now extended the experiments to T-cells and to in vivo experiments in mice.

[10] = tested on: cJUN, ERK 1/2, GATA4, NFAT2; assay: Specificity: nuclear accumulation of other transcription factors in phenylephrin stimulated cardiomyocytes; format: cell-based; conditions: cardiomyocytes stimulated with phenylephrin; FIG. 9
Text: The inventor also analyzed the specificity with the peptide (AAVALLPAVLAALAA KQECKIKYSERV SEQ ID NO: 5). In theory this peptide that mimics the Calcineurin NLS saturates the binding site on importin and therefore might completely block importin function for other transcription factors as well.

T1 sequence (Q14974 whole entry): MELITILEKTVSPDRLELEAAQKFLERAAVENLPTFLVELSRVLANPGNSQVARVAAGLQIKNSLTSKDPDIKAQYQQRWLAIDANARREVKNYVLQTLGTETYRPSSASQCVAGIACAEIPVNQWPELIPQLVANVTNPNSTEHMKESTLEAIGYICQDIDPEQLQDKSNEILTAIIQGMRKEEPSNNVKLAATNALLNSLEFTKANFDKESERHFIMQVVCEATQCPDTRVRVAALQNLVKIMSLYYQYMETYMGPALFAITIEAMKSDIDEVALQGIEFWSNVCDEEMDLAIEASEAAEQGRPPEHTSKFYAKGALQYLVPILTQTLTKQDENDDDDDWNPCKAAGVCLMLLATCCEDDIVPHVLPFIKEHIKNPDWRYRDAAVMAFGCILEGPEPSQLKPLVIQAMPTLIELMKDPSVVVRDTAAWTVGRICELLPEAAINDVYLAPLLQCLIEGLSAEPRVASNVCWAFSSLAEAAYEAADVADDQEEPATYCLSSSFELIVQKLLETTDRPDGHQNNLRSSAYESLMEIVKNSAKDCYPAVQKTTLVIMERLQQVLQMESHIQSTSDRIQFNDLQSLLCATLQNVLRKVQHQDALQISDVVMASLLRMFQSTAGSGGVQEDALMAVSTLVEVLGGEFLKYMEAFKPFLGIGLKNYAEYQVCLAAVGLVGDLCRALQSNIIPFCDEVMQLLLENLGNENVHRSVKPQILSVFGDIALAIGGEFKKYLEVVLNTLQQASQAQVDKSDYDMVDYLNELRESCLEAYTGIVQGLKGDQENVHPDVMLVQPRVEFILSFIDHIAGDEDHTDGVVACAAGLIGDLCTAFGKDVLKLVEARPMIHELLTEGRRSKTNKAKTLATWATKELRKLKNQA
T2 sequence (Q80U96 whole entry): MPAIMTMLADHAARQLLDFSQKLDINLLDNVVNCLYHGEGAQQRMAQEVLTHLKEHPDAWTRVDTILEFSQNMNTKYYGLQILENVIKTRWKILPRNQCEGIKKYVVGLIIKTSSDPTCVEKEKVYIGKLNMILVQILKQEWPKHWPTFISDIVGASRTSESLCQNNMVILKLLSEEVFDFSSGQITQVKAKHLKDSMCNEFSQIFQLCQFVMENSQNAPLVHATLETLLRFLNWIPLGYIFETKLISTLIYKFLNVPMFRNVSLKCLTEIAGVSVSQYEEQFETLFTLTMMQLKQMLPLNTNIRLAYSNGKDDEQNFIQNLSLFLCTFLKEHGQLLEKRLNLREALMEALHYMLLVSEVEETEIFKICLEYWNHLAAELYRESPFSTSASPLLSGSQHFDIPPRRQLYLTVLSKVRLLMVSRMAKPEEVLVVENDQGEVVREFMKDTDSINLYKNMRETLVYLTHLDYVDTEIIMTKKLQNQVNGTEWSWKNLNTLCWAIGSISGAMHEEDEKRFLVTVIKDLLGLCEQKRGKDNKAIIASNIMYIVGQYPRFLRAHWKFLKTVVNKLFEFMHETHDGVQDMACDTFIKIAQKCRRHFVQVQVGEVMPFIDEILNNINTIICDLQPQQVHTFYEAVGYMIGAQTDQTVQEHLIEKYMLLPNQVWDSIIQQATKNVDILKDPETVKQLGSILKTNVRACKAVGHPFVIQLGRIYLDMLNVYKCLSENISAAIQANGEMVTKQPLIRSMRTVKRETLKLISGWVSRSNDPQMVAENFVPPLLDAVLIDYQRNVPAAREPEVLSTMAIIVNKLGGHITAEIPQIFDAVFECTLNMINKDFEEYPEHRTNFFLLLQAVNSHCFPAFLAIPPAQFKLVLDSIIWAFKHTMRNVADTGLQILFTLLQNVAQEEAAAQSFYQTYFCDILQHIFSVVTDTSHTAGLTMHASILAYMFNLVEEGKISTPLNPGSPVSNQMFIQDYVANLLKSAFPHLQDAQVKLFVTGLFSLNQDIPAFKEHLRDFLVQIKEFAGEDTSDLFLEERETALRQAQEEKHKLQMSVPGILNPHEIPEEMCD

total CnA phosphatase activity [3] [%] | Molecule | calcineurin interaction/binding with importin β1 [1] | nuclear import (translocation) of CnA [2] | development of myocardial hypertrophy in vivo (heart/body weight ratio, molecular markers, echocardiography) ([6]; Ang II minipump mice) | dilation of the left ventricle (left ventricular end diastolic diameter, LVEDD) [6] | nuclear accumulation/import of selected transcription factors (cJUN, ERK 1/2, GATA4, NFAT2) [10] | other results
273±11 | AAVALLPAVLLALLAKQECKIKYSERV (nuclear localisation signal and membrane anker) [NLS peptide] | prevented CnA binding to importin β1; also recorded: abrogated the interaction of calcineurin and importin β1 | suppressed calcineurin nuclear import | able to suppress the development of myocardial hypertrophy in vivo | dilation could prevented |  | transcriptional activity of the CnA/NF-ATc signalling pathway ([4]; cardiomyocytes stimulated with Ang II (10 μM), n=8, p<0.05): 123±8%; transcriptional activity of calcineurin/NF-ATc (NF-ATc luciferase reporter plasmid), in words ([4]; neonatal rat cardiomyocytes, Ang II, FIG. 5A bottom, FIG. 5D): dose dependent manner; cell size [5]: 728±65 μm^2; expression of brain natriuretic peptide (BNP) [5]: 88±8%; protein synthesis [5]: 133±12%; f-MHC expression as molecular marker of hypertrophy ([6]; mice treated with angiotensin for 4 weeks, FIG. 7B): prevented expression of this marker; Luciferase activity [7]: suppressed Luciferase activity
 | CCC(=C/[C@H](C)C/C=C/C(C)=C/[C@@H](C)C(=O)[C@@H](C)[C@H](O)[C@@H](C)C/C(C)=C/C(=O)O)/C=C/[C@@H]1OC(=O)C=C[C@@H]1C [LMB, leptomycin B] |  |  |  |  |  | nuclear export of CnA [8]: suppressed nuclear export of CnA
289±17 | AAVALLPAVLLALLAAQECAIAYSEYV (control peptide and membrane anker) [non sense peptide used in control experiments, reference compound] | did not interfere with the calcineurin/importin binding | not inhibited |  | did not prevent left ventricular dilation |  | 
 | blocking peptide: mimics the calcineurin NLS, with peptide extension to increase membrane permeability; synthesised as a cyclic peptide for in vivo use (AAVALLPAVLLALLAKQECKIKYSERV; also: synthesised as cyclic peptide, mode not given here) |  |  | able to prevent the development of myocardial hypertrophy; also recorded: prevents myocardial hypertrophy |  | did not prevent nuclear accumulation | T cell protein synthesis (H3-thymidin incorporation) / activation of lymphocytes [9]: inhibited significantly; also recorded: significantly prevented activation of lymphocytes; calcineurin entry into the nucleus in vivo ([6]; Ang II minipump mice, cellular level): suppressed calcineurin entry into the nucleus; heart weight ([6]; mice treated with Ang II for 4 weeks, cyclic peptide with membrane permeability extension, 25 mg/kg body weight/day i.p. twice daily, FIG. 7A): prevented an increase in heart weight
 | AAVALLPAVLAALAA KQECKIKYSERV (AAVALLPAVLAALAAKQECKIKYSERV; alternative nucl loc signal plus membrane anker) [SEQ ID NO: 5] |  |  |  |  | did not block import | 
 | KQECKIKYSERV [SEQ ID NO: 2] |  |  |  |  |  | toxic effect ([4]; higher concentrations (>1 μM), values below background levels of untreated cardiomyocytes, FIG. 5D): toxic effect is possible
